In PMC10534526 (Molecules, 2023):
Read-outs that look alike come from different tables or passages of the source.

How the values were obtained:
[1] = system: AGE formation; experiment: AGE formation inhibitory activity (glucose-mediated protein glycation of BSA, spectrofluorometric); format: biochemical; conditions: n = 3, 60°C, 24 h, read-out: AGE Inhibitory Activity (IC50, Mean ± SD)
Protocol: The compound PS10 with 4-methylpiperazine had better anti-glycating effects compared to the unsubstituted piperazine compound (PS6). […]
The synthesized compounds were assayed by the spectrofluorometric method for inhibition of glucose-mediated protein glycation. All the compounds and aminoguanidine (positive control) with different concentrations were evaluated in triplicate. […]
In vitro advanced glycation end-product (AGEs) formation inhibitory activity The assay for the ability of the synthesized compounds to inhibit the glucose-mediated protein glycation and the development of ﬂuorescent AGEs was performed. Different concentrations of various compounds were prepared by dissolving in DMSO. Anti-glycation assay was performed according to the methods reported by Matsuura and colleagues with slight modification. In all experiments, about 500 µl of Bovine serum albumin (1mg/ml final concentration) was incubated with 400 µl of glucose (500 mM) in the presence of 100 µl of test compounds, aminoguanidine or PBS as control buffer at different concentrations, The reaction was allowed to proceed at 60°C for 24hrs and thereafter reaction was stopped by adding 10 µl of 100% (w/v) trichloroacetic acid (TCA). Then the mixture was kept at 4°C for 10 min before subjected to centrifugation at 15,000 rpm. The precipitate was redissolved in 1ml alkaline PBS (pH10) and immediately quantified for relative amount of glycated BSA based on fluorescence intensity by spectrofluorometer LS-55 (Perkin Elmer) at 370 nm (excitation) and 440 nm (emission). Aminoguanidine was used as a positive control. Percentage inhibition was calculated. All experiments were performed in triplicate.

[2] = Free radical scavenging activity (DPPH, Blois method); conditions: n = 3, read-out: Radical Scavenging Activity (EC50, Mean ± SD)
Protocol: The activity was tested using the spectrophotometric Blois method.
Radical scavenging activity (DPPH Method)
The stable 1, 1-diphenyl-2-picryl hydrazyl radical (DPPH) was used for determination of free radical-scavenging activity of the test compounds. The 0.1 mM solution of DPPH in methanol (39.4 mg in 1000 ml) was freshly prepared. Different concentrations of test compounds were added with an equal volume to methanol solution of DPPH. After 30 min at room temperature, the absorbance was recorded at 517 nm. Ascorbic acid was used as standard. IC50 values denote the concentration of sample, which is required to scavenge 50% of DPPH free radicals. IC50 value was determined from the plotted graph of scavenging activity against the different concentrations of test compounds. Ascorbic acid was applied as positive drug (Blois, 1958).

[3] = molecular target: T1, brain AChE (rat cortex homogenate) (Rattus norvegicus, UniProt P37136); experiment: biochemical
T1 construct: homogenate was used as the resource of AChE; from tissue; host or cells: rat cortex homogenate
T1 sequence (P37136 32-614): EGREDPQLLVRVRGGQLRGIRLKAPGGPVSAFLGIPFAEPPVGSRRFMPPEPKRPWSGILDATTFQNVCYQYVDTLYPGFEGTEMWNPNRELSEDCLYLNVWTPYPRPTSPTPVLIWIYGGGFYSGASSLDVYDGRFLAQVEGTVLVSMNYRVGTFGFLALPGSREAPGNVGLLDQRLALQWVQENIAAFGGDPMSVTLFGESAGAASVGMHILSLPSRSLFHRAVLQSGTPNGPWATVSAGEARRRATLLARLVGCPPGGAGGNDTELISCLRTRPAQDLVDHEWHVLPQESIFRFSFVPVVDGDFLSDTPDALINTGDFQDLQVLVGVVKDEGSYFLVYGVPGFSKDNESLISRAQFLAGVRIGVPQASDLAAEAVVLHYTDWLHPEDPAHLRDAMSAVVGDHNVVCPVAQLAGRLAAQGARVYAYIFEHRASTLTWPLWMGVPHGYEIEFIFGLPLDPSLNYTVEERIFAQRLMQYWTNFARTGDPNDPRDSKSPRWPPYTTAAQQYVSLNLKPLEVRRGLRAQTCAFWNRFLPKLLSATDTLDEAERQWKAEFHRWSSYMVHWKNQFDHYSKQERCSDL
Protocol: The ability of target compounds PS(1–10) to inhibit AChE was evaluated by the slightly modified Ellman’s method. The objective of attaching different amines to the 1,3-diphenylprop-2-enone skeleton via an ethoxy spacer was to enhance the interaction of the designed synthesized chalcones with both the PAS and CAS of AChE.
The inhibitory potential of synthesized compounds was evaluated for brain AChE by the widely used Ellman et al. process. The method involved using spectroscopic investigation at 450 nm. All the compounds with different concentrations were evaluated in triplicate including donepezil (standard AChE inhibitor).
In vitro inhibition of AChE
The inhibitory potency of target compounds on AChE was determined using spectroscopic […]
homogenate was used as the resource of AChE. For assay of AChE activity, a reaction mixture containing 100μl acetylthiocholine iodide 0.075M/L, 100μl sodium phosphate buffer (0.1M/L, pH 7.4), 20μl homogenate or serum and different concentrations of test compounds 20μl was incubated at 37° C for 15 min. The reaction was terminated by adding 50μl 3% sodium lauryl sulfate, then, 50μl, 0.2% of 5,5’–dithio-bis- (2-nitrobenzoic acid) (DTNB, 10 mg DTNB in 100 mL of Sorenson phosphate buffer, pH 8.0) was added to produce the yellow anion of 5-thio-2-nitro-benzoic acid. Assays were carried out with a blank containing all components except AChE in order to account for non-enzymatic reaction. The values of IC 50 were calculated by UV spectroscopy from the absorbance changes at 450 nm. A positive control of donepezil was used in the same range of concentrations. Each concentration was analyzed in triplicate. Data from concentration–inhibition experiments of the inhibitors were calculated by nonlinear regression analysis, using the GraphPad Prism 5 program. […]

[4] = molecular target: T2, brain AChE (Rattus norvegicus, UniProt P37136); experiment: Brain AChE activity in STZ-treated rats (brain homogenate); format: in vivo; conditions: STZ i.c.v. rats; PS10 2, 5, 10 mg/kg p.o.
T2 construct: from tissue; host or cells: brain homogenate of STZ-treated Wistar rats
T2 sequence (P37136 32-614): T1 sequence (P37136 32-614)
Description: The central cholinergic system is critical for cognitive function, and AD patients often suffer from cholinergic hypofunction due to increased AChE activity and the degeneration of cholinergic neurons. Animal studies have shown that the administration of STZ (i.c.v) increases brain AChE activity, which leads to cognitive impairment and memory deficits. […]. Possibly, due to these interactions between PS10 and amino acids of AChE, PS10 was able to inhibit AChE activity.
(§1) Groups IV, V, and VI (STZ + PS10): Following intracerebroventricular injections of STZ, animal groups were administered different doses of PS10 (2, 5, and 10 mg/kg, p.o., respectively), from 9 to 22 days.
(§2) After the behavioral experiment was completed, the rats were euthanized under mild anesthesia using cervical dislocation, and their brains were extracted. The homogenates were made in a buffer (pH 7.4) for further analysis. AChE activity, total protein levels, reduced GSH levels, and thiobarbituric acid reactive species (TBARS) levels were measured using the brain homogenates.

[5] = system: STZ-induced cognitive impairment in rats; experiment: Morris Water Maze in STZ-induced dementia; format: in vivo, Wistar rats; conditions: STZ i.c.v. 3 mg/kg rats; PS10 2, 5, 10 mg/kg p.o., day 9 to 22
Protocol: The STZ model (i.c.v., 3 mg/kg) is commonly used to study AD in animals. The intracerebroventricular injection of STZ, at two sub-diabetogenic doses, induces a range of symptoms including impaired cognition, metabolic and molecular changes, and neuropathological symptoms in rodents which are often found in AD subjects. […] The ROS produced can cause damage to the myelin sheath and acetyl coenzyme-A in the hippocampus. As a result, there is an increase in AChE activity, leading to behavioral disturbances, as in Alzheimer’s disease. Thus, this model is frequently used for AD interventions.
MWM is the most commonly used method to measure learning and spatial memory in rats. MWM utilizes the natural swimming ability of rats. As a result, during the retrieval phase, there is no induced stress that could affect the results. The MWM model is commonly used to test drugs that enhance memory and provide neuroprotection. Thus, it has been used to understand the effect of PS10 on the memory of animals with induced cognitive impairment by means of restoring the ELT.
To induce cognitive impairment in rats, solutions of Streptozotocin (STZ, 3 mg/kg) in artificial cerebro-spinal fluid (ACSF) were given as i.c.v. (intracerebroventricular) injections. The STZ injections were administered bilaterally on days 1 and 3 of the experimental protocol. […]

[6] = system: brain GSH and TBARS levels; experiment: Brain oxidative stress markers (GSH, TBARS) in STZ-treated rats; format: in vivo, Wistar rats; conditions: STZ i.c.v. rats; PS10 2, 5, 10 mg/kg p.o.
Description: Another crucial factor that contributes to the progression of AD is oxidative stress. The brain is more vulnerable to oxidative damage compared to other organs due to its high energy demand, relatively lower level of antioxidant defense mechanisms, and high concentration of polyunsaturated fatty acids. STZ injection generates free radicals that overwhelm the brain’s defensive antioxidant system (GSH) and cause lipid membrane oxidation, leading to the production of malondialdehyde. Thus, in order to analyze the antioxidant property of PS10, the levels of TBARS and GSH were measured in the current investigation (Figure 6).
as §1, §2

[7] = n = 3, rat cortex homogenate, read-out: AChE Inhibitory Activity (IC50, Mean ± SD)

Structure (SMILES)	IC50 [1]	EC50 [2]	IC50 [3, 7]	further results
N=C(N)NN [Aminoguanidine (AG), Aminoguanidine, reference compound]	44300 ± 120 nM	–	–	–
O=C1O[C@H]([C@@H](O)CO)C(O)=C1O [Ascorbic acid, reference compound]	–	21.7 ± 0.08 nM	–	–
O=C(C=Cc1ccc(O)cc1)c1ccccc1 [PS1, 3-(4-Hydroxyphenyl)-1-phenylprop-2-en-1-one]	43600 ± 80 nM	22.4 ± 0.4 nM	–	IC50 [3]: 36.5 ± 0.42 nM
CN(C)CCOc1ccc(C=CC(=O)c2ccccc2)cc1 [PS2, 3-(4-(2-(Dimethylamino)ethoxy)phenyl)-1-phenylprop-2-en-1-one]	68600 ± 230 nM	49.85 ± 0.11 nM	52.51 ± 0.2 nM	–
CCN(CC)CCOc1ccc(C=CC(=O)c2ccccc2)cc1 [PS3, 3-(4-(2-(Diethylamino)ethoxy)phenyl)-1-phenylprop-2-en-1-one]	67300 ± 330 nM	49.41 ± 0.22 nM	47.5 ± 0.21 nM	–
CN(CCOc1ccc(C=CC(=O)c2ccccc2)cc1)Cc1ccccc1 [PS4, 3-(4-(2-(Benzyl(methyl)amino)ethoxy)phenyl)-1-phenylprop-2-en-1-one]	69390 ± 200 nM	49.48 ± 0.21 nM	48.8 ± 0.04 nM	–
O=C(C=Cc1ccc(OCCN2CCCCC2)cc1)c1ccccc1 [PS5, 1-Phenyl-3-(4-(2-(piperidin-1-yl)ethoxy)phenyl)prop-2-en-1-one]	55300 ± 200 nM	34.4 ± 0.4 nM	19.7 ± 0.3 nM	–
O=C(C=Cc1ccc(OCCN2CCNCC2)cc1)c1ccccc1 [PS6, 1-Phenyl-3-(4-(2-(piperazin-1-yl)ethoxy)phenyl)prop-2-en-1-one]	64510 ± 200 nM	46.7 ± 0.24 nM	21.4 ± 0.8 nM	–
O=C(C=Cc1ccc(OCCN2CCOCC2)cc1)c1ccccc1 [PS7, 3-(4-(2-Morpholinoethoxy)phenyl)-1-phenylprop-2-en-1-one]	51200 ± 800 nM	37.65 ± 0.24 nM	22.72 ± 0.13 nM	–
O=C(C=Cc1ccc(OCCN2CCCC2)cc1)c1ccccc1 [PS8, 1-Phenyl-3-(4-(2-(pyrrolidin-1-yl)ethoxy)phenyl)prop-2-en-1-one]	65410 ± 360 nM	48.64 ± 0.18 nM	32.72 ± 0.12 nM	–
O=C(C=Cc1ccc(OCCn2ccnc2)cc1)c1ccccc1 [PS9, 3-(4-(2-(1H-Imidazol-1-yl)ethoxy)phenyl)-1-phenylprop-2-en-1-one]	65700 ± 170 nM	48.58 ± 0.42 nM	26.3 ± 0.3 nM	–
CN1CCN(CCOc2ccc(C=CC(=O)c3ccccc3)cc2)CC1 [PS10, 3-(4-(2-(p-Methylpiperazin-1-yl)ethoxy)phenyl)-1-phenylprop-2-en-1-one]	49850 ± 130 nM	22.83 ± 0.2 nM	15.3 ± 0.72 nM	brain AChE activity [4]: restored; ELT (escape latency time) in MWM [5]: significantly decreased STZ-induced cognitive impairment; TSTQ (time spent in target quadrant) in MWM [5]: significantly decreased STZ-induced cognitive impairment; brain GSH level [6]: reversed; brain TBARS levels [6]: reversed
